The molecules below were run against T1, human Eg5 motor domain (Homo sapiens, UniProt P52732) (assay: Eg5 enzyme inhibition test (2) (ATPase activity, Eg5 motor domain)). Settings: human Eg5 motor domain purified sample, 30° C. for 30 minutes, absorbance at 360 nm.
T1 construct: A plasmid expressing the motor domain of human Eg5 was constructed; made in house; host or cells: Escherichia coli BL21 (DE3)
T1 sequence (P52732 18-359 limits assumed): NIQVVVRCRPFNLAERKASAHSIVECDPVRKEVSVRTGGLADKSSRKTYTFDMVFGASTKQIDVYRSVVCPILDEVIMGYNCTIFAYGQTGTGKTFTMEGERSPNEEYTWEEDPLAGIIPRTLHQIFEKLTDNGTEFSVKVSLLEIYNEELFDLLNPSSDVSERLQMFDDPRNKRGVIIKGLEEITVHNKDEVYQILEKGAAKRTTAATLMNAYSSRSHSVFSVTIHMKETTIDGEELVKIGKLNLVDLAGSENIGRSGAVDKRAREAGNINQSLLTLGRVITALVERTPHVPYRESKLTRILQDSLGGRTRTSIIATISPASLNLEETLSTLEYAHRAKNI
Assay type: biochemical
Description: A recombinant human Eg5 motor domain protein was prepared by referring to the literature [Biochemistry, Vol. 35, p. […] A plasmid expressing the motor domain of human Eg5 was constructed, and transformed into Escherichia coli BL21 (DE3). The transformant was cultured at 25° C., and when OD600 reached 0.74, isopropyl-β-D-thiogalactoside was added at a final concentration of 0.5 mmol/L. The transformant was further cultured for 4 hours, and then the culture medium was centrifuged to collect the cells. The cells were suspended in a buffer and ultrasonicated, and then the sonicated solution was centrifuged to recover the supernatant. The supernatant was purified by cation exchange column chromatography to obtain a partially-purified sample. Furthermore, the partially purified sample was purified by gel filtration column chromatography to obtain a finally purified sample.
Measurement of the ATPase activity of Eg5 was carried out by referring to the literatures EEMBO Journal, Vol. 13, p. […] Solution A was dispensed into each well of a 96-well plate as 45 μL portions. Solution B was used to serially dilute a test compound. The diluted test compound solutions in a volume of 30 μL were mixed with Solution A added beforehand in each well of the 96-well plate to start the enzymatic reaction. The enzymatic reaction was performed at 30° C. for 30 minutes.

SMILES	IC50 [nM]
CN(C)CCCS(=O)(=O)NCC1(c2ccccc2)SC(NC(=O)C(C)(C)C)=NN1C(=O)C(C)(C)C (stereo not shown) [Compound 238]	≤ 2000
CCS(=O)(=O)NCC1(c2ccccc2)SC(NC(=O)C(C)(C)C)=NN1C(=O)C(C)(C)C (stereo not shown) [Compound 97]	≤ 2000
CC(=O)NC1=NN(C(C)=O)C(C)(c2sccc2Cl)S1 (stereo not shown) [Compound 134]	≤ 2000
CC(=O)N1N=C(NC(=O)C(C)(C)C)SC1(CNS(=O)(=O)CCN(C)C)c1ccccc1 (stereo not shown) [Compound 174]	≤ 2000
C=CS(=O)(=O)NCC1(c2ccccc2)SC(NC(=O)C(C)(C)C)=NN1C(=O)C(C)(C)C (stereo not shown) [Compound 171]	≤ 2000
CN(C)CCC1(c2ccccc2)SC(NC(=O)C(C)(C)C)=NN1C(=O)C(C)(C)C (stereo not shown) [Compound 104]	≤ 2000
CC(C)(C)C(=O)NC1=NN(C(=O)C(C)(C)C)C(CCC(N)=O)(c2ccccc2)S1 (stereo not shown) [Compound 107]	≤ 2000
CC(=O)N1N=C(N2CCCCC2=O)SC1(CNS(C)(=O)=O)c1ccccc1 (stereo not shown) [Compound 154]	≤ 2000
CCNCCS(=O)(=O)NCC1(c2ccccc2)SC(NC(=O)C(C)(C)C)=NN1C(=O)C(C)(C)C (stereo not shown) [Compound 176]	≤ 2000
CC(C)(C)C(=O)NC1=NN(C(=O)C(C)(C)C)C(CCC(=O)NCCO)(c2ccccc2)S1 (stereo not shown) [Compound 111]	≤ 2000
CC(=O)N1N=C(N2CCCC2=O)SC1(CNS(C)(=O)=O)c1ccccc1 (stereo not shown) [Compound 152]	≤ 2000
CC(C)(C)C(=O)NC1=NN(C(=O)C(C)(C)C)C(CCN)(c2ccccc2)S1 (stereo not shown) [Compound 210]	≤ 2000
CCN(C)CCS(=O)(=O)NCC1(c2ccccc2)SC(NC(=O)C(C)(C)C)=NN1C(=O)C(C)(C)C (stereo not shown) [Compound 264]	≤ 2000
CC(C)(C)C(=O)NC1=NN(C(=O)C(C)(C)C)C(CNS(=O)(=O)CCCN)(c2ccccc2)S1 (stereo not shown) [Compound 221]	≤ 2000
CC(C)C(=O)NC1=NN(C(=O)C(C)C)C(CCNS(C)(=O)=O)(c2ccccc2)S1 (stereo not shown) [Compound 100]	≤ 2000
CC(C)(C)C(=O)NC1=NN(C(=O)C(C)(C)C)C(CNS(C)(=O)=O)(c2ccccc2)S1 (stereo not shown) [Compound 95]	≤ 2000

From US8318782B2, “Mitotic kinesin inhibitor” (Kyowa Hakko Kirin Co., Ltd., priority 2003, dated 2012)
